Data on four compounds can be found in patent US20090143452A1, “Use of prochloraz for wood protection” (priority 2005, published 2009).

Entries after “also recorded” stand apart in the source; their conditions may differ.

In one test the test system is soft-rot fungi. In words: Activity against soft rot, test based on ENV 807 (reduction in mass of treated Pinus sylvestris wood samples). The settings on record: for Activity against soft-rot fungi in the test according to ENV 807 (in words): 0.3% active compound where stated; for Reduction in mass in % (mean): Pinus sylvestris specimens vacuum drenched with 0.3% active compound solution, ageing per EN 84, 20 weeks incubation. How it is done:
The activity of prochloraz and of a copper/chromate preparation and tebuconazole, 3-iodo-2-propynyl butylcarbarbamate (IPBC) and imazalil was determined in a test based on ENV 807 (12/2001). To this end, test specimens of the wood type Pinus sylvestris of a size of 40×15×4 mm were vacuum drenched with 0.3 and 0.4% strength active compound solutions and conditioned for 14 days. This was followed by accelerated ageing according to EN 84.
Subsequently, the wood samples were placed on a malt agar medium according to EN 113 and inoculated with a spore suspension according to ENV 807. After 20 weeks of incubation, the reduction in mass of the wood samples treated was determined.

Another test deals with blueing fungi. The settings on record: J. A. Drysdale et al., New Zealand Journal of Forestry Science 1982; cited from earlier work.

Take `CCCCNC(=O)OCC#CI` [IPBC, 3-iodo-2-propynyl butylcarbarbamate]: in the test with soft-rot fungi, the “Activity against soft-rot fungi in the test according to ENV 807 (in words)” value (shortened to “Activity against soft-rot fungi”) is recorded as “entirely insufficient activity; also recorded: insufficiently active” and the “Reduction in mass in % (mean)” value is greater than 4%.
For `C=CCOC(Cn1ccnc1)c1ccc(Cl)cc1Cl` (stereo not shown) [Imazalil, imazalil] the same measures were “entirely insufficient activity; also recorded: insufficiently active” and greater than 4%.
Consider `CCCN(CCOc1c(Cl)cc(Cl)cc1Cl)C(=O)n1ccnc1` [Prochloraz, N-propyl-N-[2-(2,4,6-trichlorophenoxy)ethyl]imidazole-1-carboxamide], for which, in the test on soft-rot fungi, the “Activity against soft-rot fungi” value is “broad activity” and the “Reduction in mass in % (mean)” value was less than 2%. Also, the “Activity against soft-rot fungi” value in the test with soft-rot fungi (listed as prochloraz) is given as “excellent activity; also recorded: effect comparable to that of the 0.4% strength copper/chromium standard”. The “Activity against blueing fungi (in words)” value with blueing fungi was “insufficiently active”.
In the case of `CC(C)(C)C(O)(CCc1ccc(Cl)cc1)Cn1cncn1` (stereo not shown) [Tebuconazole, tebuconazole], in the test with soft-rot fungi, the “Activity against soft-rot fungi” value was “insufficiently active” and the “Reduction in mass in % (mean)” value was greater than 4%.
